These are literature values, as cited in patent US20140170075A1, “NON-INVASIVE IMAGING METHODS FOR PATIENT SELECTION FOR TREATMENT WITH NANOPARTICULATE THERAPEUTIC AGENTS” (Merrirnack Pharmaceuticals, Inc., priority 2012, published 2014).

The subject of the data set is cancer cell proliferation. The settings on record: more active than irinotecan.

As to `CCc1c2c(nc3ccc(O)cc13)-c1cc3c(c(=O)n1C2)COC(=O)[C@]3(O)CC` [SN-38], the “activity as an inhibitor of cancer cell proliferation relative to irinotecan” value is reported as 100-1000 ×.
